In patent publication US20240041042A1, “1-(PYRIDYL)-5-AZINYLPYRAZOLE DERIVATIVES, AND THEIR USE FOR CONTROL OF UNDESIRED PLANT GROWTH” (Bayer Aktiengesellschaft, priority 2020, published 2024):
Where two headings read alike, the source gives them in different places.

What was measured:
Format in all cases: in vivo
[1] = tested on: Verconica persica (VERPE); experiment: Post-emergence herbicidal action against VERPE
Procedure, shortened: (§1)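 Rates were 320 g/ha or below, applied as aqueous WP/EC spray with 0.5% additive (600 l/ha) onto one-leaf-stage plants. About 3 weeks later in the greenhouse, damage was scored visually against untreated plants on a 0–100% scale, where 100% means plants died.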

[2] = tested on: Echinochloa crus-galli (ECHCG); experiment: Post-emergence herbicidal action against ECHCG
Procedure, shortened: as §1

[3] = tested on: Abutilon theophrasti (ABUTH); experiment: Pre-emergence herbicidal action against ABUTH; conditions: 100% = plants have died
Procedure, shortened: (§2)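 Application rates ran to 320 g/ha or lower, with several dosages tested on the same weeds. The compound, as wettable powder or emulsion concentrate, is sprayed pre-emergence onto soil over sown seeds; greenhouse growth follows, and effect is rated visually after roughly 3 weeks.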

[4] = tested on: Amaranthus retroflexus (AMARE); experiment: Post-emergence herbicidal action against AMARE
Procedure, shortened: as §1

Lolium rigidum (LOLRI) [5] = experiment: Post-emergence herbicidal action against LOLRI
Procedure, shortened: as §1

Setaria viridis (SETVI) [6] = experiment: Post-emergence herbicidal action against SETVI
Procedure, shortened: as §1

[7] = tested on: Alopecurus myosuroides (ALOMY); experiment: Pre-emergence herbicidal action against ALOMY; conditions: scored visually after about 3 weeks, 100% = plants have died
Procedure, shortened: as §2

[8] = tested on: Alopecurus myosuroides (ALOMY); experiment: Post-emergence herbicidal action against ALOMY; conditions: visual rating about 3 weeks after treatment vs untreated controls (100% = plants have died, 0% = like control plants)
Procedure, shortened: as §1

[9] = tested on: Matricaria inodora (MATIN); experiment: Post-emergence herbicidal action against MATIN
Procedure, shortened: as §1

Avena fatua (AVEFA) [10] = experiment: Pre-emergence herbicidal action against AVEFA; conditions: visual scoring after about 3 weeks vs untreated controls
Procedure, shortened: as §2

[11] = tested on: Echinochloa crus-galli (ECHCG); experiment: Pre-emergence herbicidal action against ECHCG
Procedure, shortened: as §2

Setaria viridis (SETVI) [12] = experiment: Pre-emergence herbicidal action against SETVI
Procedure, shortened: as §2

[13] = tested on: Verconica persica (VERPE); experiment: Pre-emergence herbicidal action against VERPE
Procedure, shortened: as §2

[14] = tested on: Abutilon theophrasti (ABUTH); experiment: Post-emergence herbicidal action against ABUTH; conditions: visual rating about 3 weeks after treatment vs untreated controls (100% = plants have died, 0% = like control plants)
Procedure, shortened: as §1

[15] = tested on: Pharbitis purpurea (PHBPU); experiment: Post-emergence herbicidal action against PHBPU
Procedure, shortened: as §1

Viola tricolor (VIOTR) [16] = experiment: Post-emergence herbicidal action against VIOTR
Procedure, shortened: as §1

[17] = tested on: Matricaria inodora (MATIN); experiment: Pre-emergence herbicidal action against MATIN
Procedure, shortened: as §2

[18] = tested on: Polygonum convolvulus (POLCO); experiment: Pre-emergence herbicidal action against POLCO
Procedure, shortened: as §2

Lolium rigidum (LOLRI) [19] = experiment: Pre-emergence herbicidal action against LOLRI
Procedure, shortened: as §2

[20] = tested on: Amaranthus retroflexus (AMARE); experiment: Pre-emergence herbicidal action against AMARE; conditions: visual scoring after about 3 weeks vs untreated controls
Procedure, shortened: as §2

[21] = tested on: Pharbitis purpurea (PHBPU); experiment: Pre-emergence herbicidal action against PHBPU; conditions: dosage 320 g/ha
Procedure, shortened: as §2

Viola tricolor (VIOTR) [22] = experiment: Pre-emergence herbicidal action against VIOTR
Procedure, shortened: as §2

[23] = tested on: Polygonum convolvulus (POLCO); experiment: Post-emergence herbicidal action against POLCO
Procedure, shortened: as §1

Avena fatua (AVEFA) [24] = experiment: Post-emergence herbicidal action against AVEFA; conditions: visual rating about 3 weeks after treatment
Procedure, shortened: as §1

Zea mays (ZEAMX) = conditions: 20 g/ha, ZEAMX, effect in comparison to untreated controls
Procedure, shortened: (§3)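 Foliar application at the one-leaf stage: WP/EC formulation, 0.5% additive, 600 l/ha water. Greenhouse-grown in sandy loam. Endpoint is visual % injury relative to untreated controls at about 3 weeks.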

Oryza sativa (ORYSA) = conditions: crop plant compatibility
Procedure, shortened: as §3

[25] = Dosage column 320 g/ha (title prints 3200 g/ha), scored visually after about 3 weeks
[26] = 80 g/ha, visual rating about 3 weeks after treatment vs untreated controls (100% = plants have died, 0% = like control plants)

COC(=O)[C@@H](C)Oc1nn(-c2ncccc2F)c(-c2ccc(F)nc2)c1C(F)(F)F [Example I-331]
Post-emergence action against VERPE in % ([1]; 320 g/ha, VERPE): 90%
Post-emergence action against VERPE in % ([1]; dosage 80 g/ha): 90%
Post-emergence action against ECHCG in % ([2]; dosage 80 g/ha): 90%
Post-emergence action against ECHCG in % ([2]; dosage 320 g/ha): 90%
Pre-emergence action against ABUTH ([3]; 80 g/ha, scored visually after about 3 weeks vs untreated controls, 0% = like control plants): 80%
Pre-emergence action against ABUTH [3, 25]: 90%
Post-emergence action against AMARE in % [4, 26]: 80%
Post-emergence action against AMARE in % ([4]; 320 g/ha, visual rating about 3 weeks after treatment): 80%
Post-emergence action against LOLRI in % (Lolium rigidum (LOLRI) [5]; dosage 80 g/ha): 90%
Post-emergence action against LOLRI in % (Lolium rigidum (LOLRI) [5]; dosage 320 g/ha): 90%
Post-emergence action against SETVI in % (Setaria viridis (SETVI) [6]; dosage 80 g/ha): 90%
Post-emergence action against SETVI in % (Setaria viridis (SETVI) [6]; dosage 320 g/ha): 90%
Pre-emergence action against ALOMY ([7]; 80 g/ha): 100%
Pre-emergence action against ALOMY ([7]; 320 g/ha): 100%
Post-emergence action against ALOMY in % ([8]; 80 g/ha): 100%
Post-emergence action against ALOMY in % ([8]; 320 g/ha): 100%
Post-emergence action against MATIN in % ([9]; dosage 80 g/ha): 80%
Post-emergence action against MATIN in % ([9]; dosage 320 g/ha): 80%
Pre-emergence action against AVEFA in % (Avena fatua (AVEFA) [10]; 80 g/ha): 100%
Pre-emergence action against AVEFA in % (Avena fatua (AVEFA) [10]; 320 g/ha): 100%
Pre-emergence action against ECHCG in % ([11]; dosage 80 g/ha): 80%
Pre-emergence action against ECHCG in % ([11]; dosage 320 g/ha): 100%
Pre-emergence action against SETVI in % (Setaria viridis (SETVI) [12]; dosage 320 g/ha): 90%
Pre-emergence action against VERPE in % ([13]; dosage 80 g/ha): 100%
Pre-emergence action against VERPE in % ([13]; dosage 320 g/ha): 100%
Post-emergence action against ABUTH in % ([14]; 80 g/ha): 90%
Post-emergence action against ABUTH in % ([14]; 320 g/ha): 90%
Post-emergence action against PHBPU in % ([15]; dosage 320 g/ha): 90%
Post-emergence action against VIOTR in % (Viola tricolor (VIOTR) [16]; 80 g/ha): 80%
Post-emergence action against VIOTR in % (Viola tricolor (VIOTR) [16]; 320 g/ha): 80%
Pre-emergence action against MATIN in % ([17]; dosage 80 g/ha): 100%
Pre-emergence action against MATIN in % ([17]; dosage 320 g/ha): 100%
Pre-emergence action against POLCO in % ([18]; dosage 80 g/ha): 100%
Pre-emergence action against POLCO in % ([18]; dosage 320 g/ha): 100%
Pre-emergence action against LOLRI in % (Lolium rigidum (LOLRI) [19]; dosage 80 g/ha): 90%
Pre-emergence action against LOLRI in % (Lolium rigidum (LOLRI) [19]; dosage 320 g/ha): 100%
Pre-emergence action against AMARE in % ([20]; 80 g/ha): 100%
Pre-emergence action against AMARE in % ([20]; 320 g/ha): 100%
Pre-emergence action against PHBPU in % [21]: 90%
Pre-emergence action against VIOTR in % (Viola tricolor (VIOTR) [22]; 320 g/ha, Viola tricolor): 100%
Pre-emergence action against VIOTR in % (Viola tricolor (VIOTR) [22]; dosage 80 g/ha): 100%
Post-emergence action against POLCO in % ([23]; dosage 80 g/ha): 80%
Post-emergence action against POLCO in % ([23]; dosage 320 g/ha): 80%
Post-emergence action against AVEFA in % (Avena fatua (AVEFA) [24]; 80 g/ha): 90%
Post-emergence action against AVEFA in % (Avena fatua (AVEFA) [24]; 320 g/ha): 90%

COC(=O)[C@H](C)COC(=O)COc1nn(-c2ccccn2)c(-c2ccc(F)nc2)c1Br [Example I-76]
Post-emergence action against VERPE in % ([1]; dosage 80 g/ha): 80%
Post-emergence action against ECHCG in % ([2]; dosage 80 g/ha): 90%
Pre-emergence action against ABUTH [3, 25]: 80%
Post-emergence action against AMARE in % [4, 26]: 80%
Post-emergence action against LOLRI in % (Lolium rigidum (LOLRI) [5]; dosage 80 g/ha): 80%
Post-emergence action against SETVI in % (Setaria viridis (SETVI) [6]; dosage 80 g/ha): 90%
Pre-emergence action against ALOMY ([7]; 80 g/ha): 90%
Pre-emergence action against ALOMY ([7]; 320 g/ha): 100%
Post-emergence action against ALOMY in % ([8]; 80 g/ha): 100%
Post-emergence action against MATIN in % ([9]; dosage 80 g/ha): 80%
Pre-emergence action against AVEFA in % (Avena fatua (AVEFA) [10]; 320 g/ha): 90%
Pre-emergence action against ECHCG in % ([11]; dosage 320 g/ha): 90%
Post-emergence action against ZEAMX in % (crop plant compatibility) (Zea mays (ZEAMX)): 20%
Post-emergence action against ORYSA in % (Oryza sativa (ORYSA); 20 g/ha, effect vs untreated controls): 0%
Post-emergence action against ORYSA in % (Oryza sativa (ORYSA); 80 g/ha, effect in comparison to untreated controls): 0%
Pre-emergence action against SETVI in % (Setaria viridis (SETVI) [12]; dosage 80 g/ha): 80%
Pre-emergence action against SETVI in % (Setaria viridis (SETVI) [12]; dosage 320 g/ha): 100%
Pre-emergence action against VERPE in % ([13]; dosage 80 g/ha): 100%
Pre-emergence action against VERPE in % ([13]; dosage 320 g/ha): 100%
Post-emergence action against ABUTH in % ([14]; 80 g/ha): 90%
Post-emergence action against PHBPU in % ([15]; dosage 80 g/ha): 90%
Pre-emergence action against MATIN in % ([17]; dosage 80 g/ha): 90%
Pre-emergence action against MATIN in % ([17]; dosage 320 g/ha): 90%
Pre-emergence action against POLCO in % ([18]; dosage 80 g/ha): 80%
Pre-emergence action against POLCO in % ([18]; dosage 320 g/ha): 90%
Pre-emergence action against LOLRI in % (Lolium rigidum (LOLRI) [19]; dosage 80 g/ha): 90%
Pre-emergence action against LOLRI in % (Lolium rigidum (LOLRI) [19]; dosage 320 g/ha): 100%
Pre-emergence action against AMARE in % ([20]; 80 g/ha): 90%
Pre-emergence action against AMARE in % ([20]; 320 g/ha): 100%
Pre-emergence action against PHBPU in % [21]: 90%
Pre-emergence action against VIOTR in % (Viola tricolor (VIOTR) [22]; 320 g/ha, Viola tricolor): 100%
Pre-emergence action against VIOTR in % (Viola tricolor (VIOTR) [22]; dosage 80 g/ha): 100%
Post-emergence action against POLCO in % ([23]; dosage 80 g/ha): 80%
Post-emergence action against AVEFA in % (Avena fatua (AVEFA) [24]; 80 g/ha): 90%
